The values below come from ChEMBL document CHEMBL1132680, “A "cephalosporin-like" cyclic depsipeptide: synthesis and reaction with beta-lactam-recognizing enzymes” (Bioorg Med Chem Lett, 1999).

What all share (type): ADME
Data set [1] in a line: Km against class C P99 beta-lactamase catalyzed lactone hydrolysis.
The nature of data set [2]: Kcat/Km against class C P99 beta-lactamase catalyzed lactone hydrolysis.
Data set [3] can be described thus: Kcat/Km against class A TEM beta-lactamase catalyzed lactone hydrolysis.
The nature of data set [4]: Km against class A TEM beta-lactamase catalyzed lactone hydrolysis.
The nature of data set [5]: Kcat/Km against class A PCI beta-lactamase catalyzed lactone hydrolysis.
Data set [6] is described as follows: Kcat against class A TEM beta-lactamase catalyzed lactone hydrolysis.
The nature of data set [7]: Kcat against class A PCI beta-lactamase catalyzed lactone hydrolysis.
Data set [8] in a line: Km against class A PCI beta-lactamase catalyzed lactone hydrolysis.
Data set [9] in a line: Kcat against class C P99 beta-lactamase catalyzed lactone hydrolysis.

On to `O=C(Cc1ccccc1)N[C@H]1Cc2cccc(C(=O)O)c2OC1=O`, for which the Km (usually the substrate concentration at which the rate is half of its maximum) was 620 µM in data set [1], 53 µM in data set [4] and 0.304 µM in data set [8]. For the same molecule, the Ratio in [2] came to 8700 M⁻¹ s⁻¹; in [3], 39000 M⁻¹ s⁻¹; in data set [5] it was 1.55 M⁻¹ s⁻¹. Besides, the k cat in [6] was 2.07 s⁻¹; in data set [7], 0.0047 s⁻¹; in [9], 5.4 s⁻¹.

On to `O=C(Cc1ccccc1)N[C@@H](Cc1cccc(C(=O)O)c1O)B(O)O`, for which the Km in data set [1] was 290 µM; in data set [4], over 1000 µM; in [8], 15 µM. Moreover, the figures for the Ratio in data set [2], in [3] and in [5] were 19000 M⁻¹ s⁻¹, 1200 M⁻¹ s⁻¹ and 1.6 M⁻¹ s⁻¹, respectively. Further, the figures for the k cat in data set [6], in data set [7] and in [9] were over 1.2 s⁻¹, 0.024 s⁻¹ and 5.6 s⁻¹, respectively.

Consider `CC(=O)OCC1=C(C(=O)O)N2C(=O)[C@@H](NC(=O)Cc3cccs3)[C@H]2SC1` [CEPHALOTHIN], for which the results for the Km in data set [1], in data set [4] and in data set [8] were 9 µM, 200 µM and at most 1 µM, respectively. Moreover, the Ratio in data set [2] was 22000000 M⁻¹ s⁻¹; in data set [3], 600000 M⁻¹ s⁻¹; in [5], “>= 1000 M-1 s-1”. The k cat was 120 s⁻¹ in [6], 0.001 s⁻¹ in [7] and 200 s⁻¹ in [9].
